Columns and labels:
[1] = system: adult hippocampus-derived neural progenitor cells; assay: mathematical model of proliferation and differentiation rates; parameters: species or system rat; conditions: 500 ng/ml IGF-I
Text: Therefore, to separate the IGF-I effects on proliferation of progenitors from the instructive differentiation of progenitors to oligodendrocytes, we developed a mathematical model (as shown in FIG. 4A). This modeling approach has previously been used to quantify the effects of hippocampal astrocytes on the proliferation and neuronal differentiation of adult neural progenitor cells (Song et al., 2002). To distinguish the proliferation and differentiation rates, the model required that we count the number of RIP+ cells that were either positive or negative for BrdU at each time point. […] Because of this finding, we decided to separate the proliferation rate of RIP− (defined as α) and RIP+ cells (γ), as well as the differentiation rate (β) of RIP− to RIP+ cells. The overall death rate measured by Hoechst dye in live cultures could not be experimentally separated into a RIP− death rate (δ) and a RIP+ death rate (ε) (Song et al., 2002). Therefore, the model was bounded by the two possibilities that all cell death is from only RIP− or only RIP+ cells. We also considered the more probable assumption that the death rates for both RIP− and RIP+ cells were equal.
Six equations were used to derive values for these rates. The first equation describes the differential gain in RIP− cells: dN^RIP−/dt=(α−δ)N^RIP−−βN^RIP− (b 1) where N^RIP−is the number of RIP− cells, α is the proliferation rate of RIP− cells (per 12-h interval), β is the differentiation rate of RIP− into RIP+ cells, and δ is the death rate of RIP− cells. Similarly for RIP+ cells, dN^RIP+/dt=(γ−ε)N^RIP++βN^RIP− (2) where N^RIP+ is the number of RIP+ cells, […] is a proliferation rate of RIP+ cells, and ε is the RIP+ death rate. The sum of (1) and (2) is the equation defining total cell count: dN^Total/dt=(α−δ)N^RIP−+(γ−ε)N^RIP+ (3)
The time-course experiments were performed in 12-h intervals, allowing for measurement of the proliferation and differentiation rates at each 12-h time interval—αi is the proliferation rate of RIP− cells at time ‘i’ and so forth. […]

[2] = system: oligodendrocytes in the hilus of the adult rat hippocampus; assay: IGF-I overexpression in vivo in the hippocampus (hilus), immunohistochemistry; conditions: 4 weeks after injection
Procedure: cDNA encoding the human IGF-I gene was cloned into a recombinant AAV vector and the virus was prepared as previously described (Kaspar et al., 2002). Expression of IGF-I and {overscore (β)}gal (control AAV) was first confirmed in human embryonic kidney (HEK-293) cells by RT-PCR and Western analysis and subsequently in the hippocampus by RT-PCR analysis (unpublished data). Recombinant AAV-IGF-I (rAAV-IGF-I) or AAV-{overscore (β)}gal (rAAV-{overscore (β)}gal) was stereotaxically injected into the hippocampus (anteroposterior axis, −4.0 mm; mediolateral axis, +2.0 mm; dorsoventral axis, −3.0 from skull, with nose bar at 3.3 mm up) of anesthetized female Fischer-344 rats (150-175 g; n=6). […]
All comparative analyses were focused on the hilus of the injected side on matched hippocampal sections. For RIP or MBP staining, immunofluorescence average pixel intensity of equivalent sized fields (4 from each animal) in control and experimental groups was determined from digital images using Adobe Photoshop. To quantify the number of oligodendrocytes, sections were immunostained with GST-π. Only immunolabeled cells with a clear DAPI-positive nucleus were scored. For quantification of GST-π cells, area counts of the hilus within the dentate gyrus of the hippocampus were performed. […] The results are expressed as the average number of cells per section.

## IGF-I: human recombinant IGF-I (R&D Systems), growth factor polypeptide
[1]
  differentiation rate (β) of RIP− to RIP+ cells: increase in differentiation rate
  proliferation rate (γ) of RIP+ cells: increase in the proliferation rate
  proliferation rate of RIP− cells (α): no increase in the proliferation rate of RIP− cells
[2]
  GFAP staining vs control animals: no observable difference in GFAP staining

From patent publication US20050148069A1, “IGF-1 instructs multipotent adult CNS neural stem cells to an oligodendroglial lineage” (priority 2003, published 2005)
